ChEMBL document CHEMBL1201862, “PubChem BioAssay data set” (2004)
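All cell lines were grown in 96-well plates and treated with compound for 48 hours. At the GI50, growth is halved.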 Activity calls are given as the source filed them. Cut-off read from the data, not from the text of the source: active = GI50 up to about 1.1 µM and inactive = higher.

Tests used:
Experiment in all cases: inhibition of tumour cell growth, NCI panel, 48 h
UACC-62 = test system: UACC-62
UACC-257 = test system: UACC-257
U-251 = test system: U-251
KM12 = test system: KM12
IGROV-1 = test system: IGROV-1
EKVX = test system: EKVX
NCI-H23 = test system: NCI-H23
RXF 393 = test system: RXF 393
LOX IMVI = test system: LOX IMVI
SF-295 = test system: SF-295
HOP-62 = test system: HOP-62
A549 = test system: A549
TK-10 = test system: TK-10
SR = test system: SR
OVCAR-5 = test system: OVCAR-5

Measured: GI50

CN1N=C(Nc2ccccc2)Sc2c1cnn(-c1ccccc1)c2=O
inactive: UACC-62 40 µM | UACC-257 > 100 µM | U-251 > 100 µM | KM12 > 100 µM | IGROV-1 > 100 µM | EKVX > 100 µM | NCI-H23 66.1 µM | RXF 393 > 100 µM | LOX IMVI 87.3 µM | SF-295 73.3 µM | HOP-62 > 100 µM | A549 > 100 µM | TK-10 > 100 µM

Cc1ccc(C)c(NC(=O)CC2SC(Nc3ccccc3Cl)=NC2=O)c1 (configuration not stated)
inactive: UACC-62 49.3 µM | UACC-257 55.3 µM | U-251 > 100 µM | SR 8.61 µM | KM12 > 100 µM | IGROV-1 > 100 µM | EKVX > 100 µM | NCI-H23 43 µM | RXF 393 90.8 µM | SF-295 72.6 µM | OVCAR-5 > 100 µM | HOP-62 > 100 µM | A549 65.3 µM | TK-10 > 100 µM

CCc1cc2c(Nc3ccccc3)c3c(nc2s1)CCCC3
inactive: UACC-62 15.3 µM | UACC-257 > 100 µM | U-251 22 µM | SR 5.3 µM | KM12 > 100 µM | IGROV-1 > 100 µM | EKVX > 100 µM | RXF 393 22.4 µM | LOX IMVI 11.4 µM | SF-295 28.8 µM | OVCAR-5 > 100 µM | HOP-62 79.4 µM | A549 8.53 µM | TK-10 > 100 µM

Nc1cc2c3c(cccc3c1)C(=O)N(CCN1CCN(CCN3C(=O)c4cccc5cc(N)cc(c45)C3=O)CC1)C2=O
inactive: UACC-62 > 100 µM | UACC-257 > 100 µM | U-251 > 100 µM | KM12 > 100 µM | IGROV-1 > 100 µM | EKVX > 100 µM | NCI-H23 > 100 µM | RXF 393 > 100 µM | SF-295 97.1 µM | OVCAR-5 > 100 µM | HOP-62 > 100 µM | A549 46.3 µM | TK-10 > 100 µM

Cc1cnc[nH]c1=O
inactive: UACC-62 > 100 µM | UACC-257 > 100 µM | U-251 > 100 µM | KM12 > 100 µM | IGROV-1 > 100 µM | EKVX > 100 µM | NCI-H23 > 100 µM | LOX IMVI > 100 µM | SF-295 > 100 µM | OVCAR-5 > 100 µM | HOP-62 > 100 µM | A549 > 100 µM | TK-10 > 100 µM

COc1cccc(-c2cc(=O)c3cc(C)c(C)c(C(=O)O)c3o2)c1
inactive: UACC-62 > 100 µM | UACC-257 > 100 µM | U-251 > 100 µM | KM12 > 100 µM | IGROV-1 > 100 µM | EKVX > 100 µM | NCI-H23 > 100 µM | LOX IMVI > 100 µM | SF-295 > 100 µM | OVCAR-5 > 100 µM | HOP-62 > 100 µM | A549 > 100 µM | TK-10 > 100 µM

COc1cccc([C@@]2(O)c3c(ccc(O)c3OC)[C@H]2OC)c1OC
inactive: UACC-62 > 10 µM | UACC-257 98.2 µM | U-251 51.4 µM | SR 38.5 µM | KM12 24.9 µM | IGROV-1 40.6 µM | EKVX 47.2 µM | NCI-H23 43.9 µM | SF-295 57.8 µM | OVCAR-5 > 100 µM | HOP-62 60.5 µM | A549 37 µM | TK-10 31.1 µM

O=C(CC1SC(Nc2ccccc2Cl)=NC1=O)Nc1ccc(Cl)cc1Cl (configuration not stated)
inactive: UACC-62 > 100 µM | UACC-257 > 100 µM | U-251 > 100 µM | KM12 > 100 µM | IGROV-1 > 100 µM | EKVX > 100 µM | NCI-H23 > 100 µM | RXF 393 > 100 µM | LOX IMVI > 100 µM | SF-295 > 100 µM | OVCAR-5 > 100 µM | HOP-62 > 100 µM | A549 > 100 µM | TK-10 > 100 µM

O=C(N/N=C/c1ccccc1O)c1cccc([N+](=O)[O-])c1
inactive: UACC-62 20.7 µM | UACC-257 9.48 µM | U-251 26.2 µM | SR 3.78 µM | KM12 29.6 µM | IGROV-1 13.7 µM | EKVX 21.1 µM | NCI-H23 16.5 µM | RXF 393 8.95 µM | LOX IMVI 18.4 µM | SF-295 19.7 µM | OVCAR-5 22.4 µM | A549 31 µM | TK-10 30.9 µM

Cc1ccccc1C(=O)Oc1ccc(Oc2ccccc2)cc1
inactive: UACC-62 > 100 µM | UACC-257 > 100 µM | U-251 > 100 µM | KM12 > 100 µM | IGROV-1 > 100 µM | EKVX 73.5 µM | NCI-H23 > 100 µM | RXF 393 > 100 µM | SF-295 > 100 µM | OVCAR-5 > 100 µM | HOP-62 > 100 µM | A549 > 100 µM | TK-10 78.2 µM

CCCCCCCCCCCCCCCCCc1nnc(N)o1
inactive: UACC-62 > 100 µM | UACC-257 > 100 µM | U-251 > 100 µM | SR > 100 µM | KM12 > 100 µM | IGROV-1 > 100 µM | NCI-H23 47.4 µM | LOX IMVI > 100 µM | SF-295 > 100 µM | OVCAR-5 > 100 µM | HOP-62 > 100 µM | A549 > 100 µM | TK-10 > 100 µM

Cc1ccc(Oc2ccc([N+](=O)[O-])cc2[N+](=O)[O-])c(C)c1
inactive: UACC-62 45 µM | UACC-257 26.1 µM | U-251 34.8 µM | KM12 > 10 µM | IGROV-1 > 100 µM | EKVX 88.7 µM | NCI-H23 28.7 µM | RXF 393 20.5 µM | SF-295 49.3 µM | OVCAR-5 82.8 µM | HOP-62 49.2 µM | A549 34.1 µM | TK-10 96.4 µM

COc1ccc(C2N3CCCCC3[C@@H]3c4[nH]c5ccccc5c4CCN23)c(OC)c1 (some centres not stated)
inactive: UACC-62 16.3 µM | UACC-257 26.2 µM | U-251 28.4 µM | IGROV-1 45.1 µM | EKVX > 100 µM | NCI-H23 22.6 µM | RXF 393 14.1 µM | SF-295 42.3 µM | OVCAR-5 22.2 µM | HOP-62 84.7 µM | A549 40.8 µM | TK-10 25.2 µM

Cc1ccc(S(=O)(=O)NC(=O)C2(Br)S(=O)(=O)OCCOS2(=O)=O)cc1
inactive: UACC-62 > 100 µM | UACC-257 > 100 µM | U-251 > 100 µM | SR > 100 µM | IGROV-1 > 100 µM | EKVX > 100 µM | NCI-H23 > 100 µM | RXF 393 > 100 µM | LOX IMVI > 100 µM | OVCAR-5 > 100 µM | HOP-62 > 100 µM | A549 > 100 µM | TK-10 > 100 µM

CSc1nc(NC2OCC(OC(C)=O)C(OC(C)=O)C2OC(C)=O)c(/N=C(\C)C(C)=O)c(=O)n1C (configuration not stated)
inactive: UACC-62 > 100 µM | UACC-257 > 100 µM | U-251 > 100 µM | KM12 > 100 µM | IGROV-1 > 100 µM | EKVX > 100 µM | NCI-H23 > 100 µM | RXF 393 > 100 µM | LOX IMVI > 100 µM | SF-295 > 100 µM | OVCAR-5 > 100 µM | HOP-62 > 100 µM | A549 > 100 µM | TK-10 > 100 µM

COC(=O)C12CC3CC(C1)CC(C(=O)OC)(C3)C2
inactive: UACC-62 > 100 µM | UACC-257 > 100 µM | U-251 > 100 µM | SR > 100 µM | KM12 > 100 µM | IGROV-1 > 100 µM | EKVX > 100 µM | NCI-H23 > 100 µM | LOX IMVI > 100 µM | SF-295 > 100 µM | OVCAR-5 > 100 µM | HOP-62 > 100 µM | A549 > 100 µM | TK-10 > 100 µM

O=C1OC(c2ccccc2)=N/C1=C\c1cc(Cl)ccc1Cl
inactive: UACC-62 > 100 µM | UACC-257 > 100 µM | U-251 70.8 µM | KM12 74.1 µM | IGROV-1 > 100 µM | EKVX > 100 µM | NCI-H23 > 100 µM | RXF 393 > 100 µM | SF-295 > 100 µM | OVCAR-5 > 100 µM | HOP-62 > 100 µM | A549 > 100 µM

CSc1ccc2c(cc1=O)C(NC(=O)c1ccc(C#N)cc1)CCc1cc(O)c(O)c(O)c1-2 (configuration not stated)
inactive: UACC-62 19.3 µM | UACC-257 12.2 µM | U-251 19.5 µM | SR 11.7 µM | KM12 33.7 µM | EKVX 22.4 µM | NCI-H23 27.6 µM | SF-295 27.2 µM | OVCAR-5 > 100 µM | HOP-62 > 100 µM | A549 44.4 µM | TK-10 63 µM

Cn1cnc(S[C@H]2[C@H]3C(=O)C=C4S[C@H]5C[C@]42C2=C(N5)C(=O)c4[nH]cc5c4C2=[N+]3CC5)c1C[C@H](N)C(=O)O
inactive: UACC-62 15.7 µM | UACC-257 16.1 µM | U-251 17.2 µM | SR 19.1 µM | KM12 16.7 µM | IGROV-1 16.4 µM | EKVX 17.7 µM | NCI-H23 10.7 µM | RXF 393 22.1 µM | LOX IMVI 13.1 µM | SF-295 15.8 µM | OVCAR-5 15.1 µM | A549 20.4 µM | TK-10 38.3 µM

COc1ccc(-c2cc(=O)c3c(O)c(OC)c(O)c(OC)c3o2)cc1OC
inactive: UACC-62 47.4 µM | UACC-257 > 100 µM | U-251 49.9 µM | SR 31.2 µM | IGROV-1 84.3 µM | EKVX > 100 µM | NCI-H23 > 100 µM | RXF 393 14.1 µM | SF-295 > 100 µM | HOP-62 44.2 µM | A549 72.1 µM
